Experimental data taken from US20120202296A1, “SYSTEM, METHOD, AND APPARATUS FOR MEASURING AFFINITY CONSTANTS” (The Trustees of Columbia University in the City of New York, priority 2011, published 2012).

Legend:
[1] = system: ds biotinylated-DNA (90 bp) containing an EcoR1 recognition sequence; assay: Time-resolved second harmonic (SH) signal on adding EcoR1 to DNA-coated microparticles; format: binding; conditions: PSC-DNA microparticles
Text: A particular example of how to use the above quantification method and system was experimentally validated as follows. An experimental apparatus was used to measure a time-resolved SH signal that was similar to that described in Yan E C Y, Liu Y, Eisenthal K B (1998) “New method for determination of surface potential of microscopic particles by second harmonic generation.” J Phys Chem B 102:6331-6336 which is hereby incorporated by reference in its entirety. A Princeton Instruments CCD camera was used to acquire light samples. The fundamental laser frequency was centered at 810 nm with approximately 400 mW of average power and a pulse width of approximately 75 femtoseconds (10^−15 sec.; fs). […] Polystyrene carboxylate (PSC) microparticle-DNA bioconjugate particles were prepared in an analogous way to previous synthetic reports.
FIG. 1A is a figurative illustration of the resulting particles 6. A biotin binding protein 18, NeutrAvidin (NA), is linked to the PSC surface (diameter ¼ 1.0 μm, Invitrogen). A PSC-NA solution with a concentration of 5.6×10^9 particles/mL, was suspended in water at pH ¼ 7.5. To this solution ds biotinylated-DNA 12 (90 bp, Integrated DNA Technologies) containing an EcoR1 recognition sequence 8, which is 15 bp from the end attached to the microparticle, was added to a DNA concentration of 0.69 nM and incubated at 55° C. for 1 h. […]

[2] = system: control DNA (6-bp EcoR1 recognition sequence altered); assay: Time-resolved SH signal control experiment with DNA whose recognition sequence is altered; format: binding; conditions: control DNA without EcoR1 recognition sequence

Substance: EcoR1: restriction enzyme that binds its DNA recognition sequence, bends and cleaves the DNA
- jump of the SH signal when EcoR1 is added ([1]; 2 mM NaCl): 9.5%
- jump of the SH signal when EcoR1 is added ([1]; NaCl concentration 8.50 mM, NaCl in place of Mg2+): 30%
- jump in the SH signal when EcoR1 is added [2]: did not show any jump in the SH signal
